Consider 14 compounds from ChEMBL document CHEMBL4680151, “Proton pump inhibitors selectively suppress MLL rearranged leukemia cells via disrupting MLL1-WDR5 protein-protein interaction” (Eur J Med Chem, 2020).

Active and inactive are the calls of the source. No cut-off for these calls is given here.

The target in data set [1] is Histone-lysine N-methyltransferase 2A/WDR5 (Homo sapiens, UniProt P61964). As to the kind of experiment: Inhibition of MLL1-WDR5 interaction […] assessed as reduction in MLL1 binding to WDR5 WIN site by 5-FAM probe based fluorescence polarization assay. A general note: Polarisation of emitted light reports the rotation of a fluorescent probe.
The subject of another data set is K562. As to the kind of experiment: Antiproliferative activity against human K562 cells harboring MLL1. It counts as functional.
For data set [2], the system named is MV4-11. As to the kind of experiment: Antiproliferative activity against human MV4-11 cells harboring MLL1-AF4. It counts as functional.
A further data set concerns MOLM-13. As to the kind of experiment: Antiproliferative activity against human MOLM-13 cells harboring MLL1-AF9. It counts as functional.
A short description of data set [3]: Cytotoxicity against HUVEC cells. It counts as cell-based. The note with it: human.
Data set [4] in a line: Cytotoxicity against human L02 cells. It counts as cell-based.
Data set [5] has as its target T1, Histone-lysine N-methyltransferase 2A/WDR5 (Homo sapiens) (UniProt P61964+Q03164). As to the kind of experiment: Inhibition of MLL1-WDR5 interaction in human MV4-11 cells assessed as downregulation of Meis1 gene expression at 5 uM incubated for 6 days by qRT-PCR analysis. It counts as cell-based. The note with it: time 6.0 day. (Quantitative PCR measures a nucleic acid by following its amplification.)

Data set [6] concerns the target T1, Histone-lysine N-methyltransferase 2A/WDR5 (Homo sapiens). As to the kind of experiment: Inhibition of MLL1-WDR5 interaction in human MV4-11 cells assessed as reduction in H3K4me1 expression at 5 uM incubated for 6 days by Western blot analysis. The note with it: time 6.0 day. It counts as cell-based. (Immunoblotting shows a protein as a band on a membrane.)
The target is the same in data set [7]. As to the kind of experiment: Inhibition of MLL1-WDR5 interaction in human MV4-11 cells assessed as reduction in H3K4me2 expression at 5 uM incubated for 6 days by Western blot analysis. It counts as cell-based. To be noted: time 6.0 day.
Data set [8] has the same target. As to the kind of experiment: Inhibition of MLL1-WDR5 interaction in human MV4-11 cells assessed as downregulation of Hoxa9 gene expression at 5 uM incubated for 6 days by qRT-PCR analysis. It counts as cell-based. To be noted: time 6.0 day.
The subject of data set [9] is MV4-11. As to the kind of experiment: Induction of apoptosis in human MV4-11 cells harboring MLL1-AF4 assessed as viable cells at 5 uM incubated for 72 hrs by annexin V-FITC and propidium iodide staining based assay (reference value: 93.75 %). It counts as functional. The note with it: read-out: Activity.
The test system of data set [10] is MV4-11. As to the kind of experiment: Induction of apoptosis in human MV4-11 cells harboring MLL1-AF4 incubated for 72 hrs by annexin V-FITC and propidium iodide staining based assay. It counts as functional, cell-based. The note with it: dose 5-25 µM.
Data set [11] relates to MV4-11. As to the kind of experiment: Induction of apoptosis in human MV4-11 cells harboring MLL1-AF4 assessed as early apoptotic cells at 10 uM incubated for 72 hrs by annexin V-FITC and propidium iodide staining based assay (reference value: 4.35 %). It counts as functional.
The target in data set [12] is T1, Histone-lysine N-methyltransferase 2A/WDR5 (Homo sapiens). As to the kind of experiment: Inhibition of MLL1-WDR5 interaction in human MV4-11 cells assessed as reduction in H3K4me1 expression incubated for 6 days by Western blot analysis. It counts as cell-based. The note with it: dose 0.1-20 µM, time 6.0 day.
Data set [13] has the same target. As to the kind of experiment: Inhibition of MLL1-WDR5 interaction in human MV4-11 cells assessed as downregulation of Hoxa9 gene expression at 10 uM incubated for 6 days by qRT-PCR analysis relative to control. It counts as cell-based. To be noted: time 6.0 day.
The test system of data set [14] is MV4-11. As to the kind of experiment: Induction of apoptosis in human MV4-11 cells harboring MLL1-AF4 assessed as early apoptotic cells at 25 uM incubated for 72 hrs by annexin V-FITC and propidium iodide staining based assay (reference value: 4.35 %). It counts as functional.
Data set [15] addresses T1, Histone-lysine N-methyltransferase 2A/WDR5 (Homo sapiens). As to the kind of experiment: Inhibition of MLL1-WDR5 interaction in human MV4-11 cells assessed as downregulation of Meis1 gene expression incubated for 6 days by qRT-PCR analysis. It counts as cell-based. The note with it: dose 1-20 µM, time 6.0 day.
Data set [16] deals with MV4-11. As to the kind of experiment: Induction of apoptosis in human MV4-11 cells harboring MLL1-AF4 assessed as necrotic cells at 5 uM incubated for 72 hrs by annexin V-FITC and propidium iodide staining based assay (reference value: 0.05 %). It counts as functional.
Data set [17] concerns the target T1, Histone-lysine N-methyltransferase 2A/WDR5 (Homo sapiens). As to the kind of experiment: Inhibition of MLL1-WDR5 interaction in human MV4-11 cells assessed as downregulation of Hoxa9 gene expression incubated for 6 days by qRT-PCR analysis. It counts as cell-based. To be noted: dose 1-20 µM, time 6.0 day.
Data set [18] has as its system MV4-11. As to the kind of experiment: Induction of apoptosis in human MV4-11 cells harboring MLL1-AF4 assessed as early apoptotic cells at 5 uM incubated for 72 hrs by annexin V-FITC and propidium iodide staining based assay (reference value: 4.35 %). It counts as functional.
Data set [19] has as its target T1, Histone-lysine N-methyltransferase 2A/WDR5 (Homo sapiens). As to the kind of experiment: Inhibition of MLL1-WDR5 interaction in human MV4-11 cells assessed as reduction in H3K4me2 expression incubated for 6 days by Western blot analysis. It counts as cell-based. The note with it: dose 0.1-20 µM, time 6.0 day.
Data set [20] concerns MV4-11. As to the kind of experiment: Induction of apoptosis in human MV4-11 cells harboring MLL1-AF4 assessed as viable cells at 10 uM incubated for 72 hrs by annexin V-FITC and propidium iodide staining based assay (reference value: 93.75 %). It counts as functional. To be noted: read-out: Activity.
For data set [21], the system named is MV4-11. As to the kind of experiment: Induction of apoptosis in human MV4-11 cells harboring MLL1-AF4 assessed as necrotic cells at 10 uM incubated for 72 hrs by annexin V-FITC and propidium iodide staining based assay (reference value: 0.05 %). It counts as functional.
For data set [22], the system named is MV4-11. As to the kind of experiment: Induction of apoptosis in human MV4-11 cells harboring MLL1-AF4 assessed as late apoptotic cells at 25 uM incubated for 72 hrs by annexin V-FITC and propidium iodide staining based assay (reference value: 1.85 %). It counts as functional.
Data set [23] has as its system MV4-11. As to the kind of experiment: Induction of apoptosis in human MV4-11 cells harboring MLL1-AF4 assessed as late apoptotic cells at 10 uM incubated for 72 hrs by annexin V-FITC and propidium iodide staining based assay (reference value: 1.85 %). It counts as functional.
Data set [24] has as its system MV4-11. As to the kind of experiment: Induction of apoptosis in human MV4-11 cells harboring MLL1-AF4 assessed as viable cells at 25 uM incubated for 72 hrs by annexin V-FITC and propidium iodide staining based assay (reference value: 93.75 %). To be noted: read-out: Activity. It counts as functional.
Data set [25] deals with MV4-11. As to the kind of experiment: Induction of apoptosis in human MV4-11 cells harboring MLL1-AF4 assessed as necrotic cells at 25 uM incubated for 72 hrs by annexin V-FITC and propidium iodide staining based assay (reference value: 0.05 %). It counts as functional.
For data set [26], the system named is MV4-11. As to the kind of experiment: Induction of apoptosis in human MV4-11 cells harboring MLL1-AF4 assessed as late apoptotic cells at 5 uM incubated for 72 hrs by annexin V-FITC and propidium iodide staining based assay (reference value: 1.85 %). It counts as functional.
Data set [27] addresses T1, Histone-lysine N-methyltransferase 2A/WDR5 (Homo sapiens). As to the kind of experiment: Inhibition of MLL1-WDR5 interaction in human MV4-11 cells assessed as downregulation of Meis1 gene expression at 10 uM incubated for 6 days by qRT-PCR analysis relative to control. To be noted: time 6.0 day. It counts as cell-based.

A word on the IC50: it is the midpoint of a concentration-inhibition curve. As to `Cc1cccnc1C[S+]([O-])c1nc2ccccc2[nH]1` (stereo unspecified), in [1], the IC50 was over 100 µM.
The same measure, in the same setting: next, `COc1c(C)cnc(C[S+]([O-])c2nc3ccccc3[nH]2)c1C` (stereo unspecified): 1.1 µM.
Broadly, the GI50 is the concentration that inhibits growth by half. On to `COc1ccc2nc([S@@+]([O-])Cc3ncc(C)c(OC)c3C)[nH]c2c1` [ESOMEPRAZOLE], for which the GI50 is over 100 µM with K562; 47.6 µM in the data set on MV4-11 [2]; 32 µM with MOLM-13; over 100 µM in [3]; over 100 µM in [4]. Besides, the IC50 in data set [1] came to 1.8 µM.
Take `Cc1c(OCC(F)(F)F)ccnc1C[S@@+]([O-])c1nc2ccccc2[nH]1` [DEXLANSOPRAZOLE]: the GI50 in the data set on K562 was over 100 µM; in the data set on MV4-11 [2] it was 25.1 µM; in the data set on MOLM-13, 27.2 µM; in data set [3], over 100 µM; in [4], over 100 µM. The IC50 in data set [1] amounted to 5.7 µM.
One may read the inhibition as how much of the control response was suppressed. As for `Cc1c(F)c(N)cc(C(=O)Nc2cc(-c3ccc(N)cc3)ccc2N2CCN(C)CC2)c1Cl`, the inhibition result in data set [5], in data set [6], in data set [7] and in data set [8] was “Active” each time.
As for `COCCCOc1ccnc(CS(=O)(=O)c2nc3cc(OC(F)F)ccc3[nH]2)c1`, in data set [1], the IC50 was over 100 µM.
As for `COc1ccc2[nH]c([S+]([O-])Cc3ncc(C)c(OC)c3C)nc2c1` (stereo unspecified) [OMEPRAZOLE], the GI50 in the data set with K562 is over 100 µM; in the data set with MV4-11 [2], 37.3 µM; in the data set on MOLM-13, 34.1 µM; in data set [3], over 100 µM; in data set [4], over 100 µM. Further, the IC50 in data set [1] worked out at 1.7 µM.
Take `Cc1c(OCC(F)(F)F)ccnc1C[S+]([O-])c1nc2ccccc2[nH]1` (stereo unspecified) [LANSOPRAZOLE]: the GI50 in the data set on K562 is over 100 µM; with MV4-11 [2], 21.1 µM; with MOLM-13 it was 30.1 µM; in data set [3], over 100 µM; in data set [4] it was over 100 µM. The IC50 in data set [1] amounted to 5.9 µM.
With `Cc1ccccc1C[S+]([O-])c1nc2ccccc2[nH]1` (stereo unspecified), the IC50 in [1] is over 100 µM.
The same measure, in the same setting: next, `COc1c(C)cnc(C[S+]([O-])c2nc3ccccc3s2)c1C` (stereo unspecified): over 100 µM; `COc1c(C)cnc(C[S+]([O-])c2nc3ccccc3o2)c1C` (stereo unspecified): over 100 µM.
For the compound `COCCCOc1ccnc(C[S+]([O-])c2nc3ccccc3[nH]2)c1C` (stereo unspecified) [RABEPRAZOLE], in the data set on MV4-11 [9], the viability at 5 µM is 86.4%. For the same compound, the Activity result in the data set with MV4-11 [10] is “Dose-dependent effect”; in the data set with MV4-11 [11], 4.75%; with MV4-11 [14], 6.4%; in the data set with MV4-11 [16], 0.2%; in the data set on MV4-11 [18], 7.75%; in the data set on MV4-11 [21], 0.3%. Further, the Activity with MV4-11 [22] came out at 16.5%; with MV4-11 [23], 8.7%; in the data set on MV4-11 [25], 0.8%; in the data set on MV4-11 [26] it was 5.65%. For the same compound, the inhibition entry was “Dose-dependent effect” in data set [12]; 50% in data set [13]; “Dose-dependent effect” in [15]; “Dose-dependent effect” in data set [17]; “Dose-dependent effect” in data set [19]; 50% in data set [27]. The GI50 with K562 was over 100 µM; with MV4-11 [2], 14.1 µM; in the data set with MOLM-13, 17.5 µM; in data set [3] it was over 100 µM; in [4] it was over 100 µM. Moreover, the viability at 10 µM in the data set with MV4-11 [20] is 86.2%. In addition, in data set [1], the IC50 was found to be 0.49 µM. In the data set on MV4-11 [24], the viability at 25 µM stood at 76.3%.
`COCCCOc1ccnc(C[S+]([O-])c2nc3cc(OC(F)F)ccc3[nH]2)c1C` (stereo unspecified): the IC50 in data set [1] stood at 1.7 µM.
With `COc1c(C)cnc(CSc2nc3ccccc3[nH]2)c1C`, the IC50 in data set [1] was over 100 µM.
